These results are taken from patent US20250195457A1, “PHARMACEUTICAL COMPOSITION FOR TREATMENT OF PARKINSON'S DISEASE” (Eisai R&D Management Co., Ltd., priority 2022, published 2025).

One series relates to various animal models. The note with it: cited from earlier work.
In a further series the test system is mouse kindling model. The note with it: anti-seizure effect (ED50) in mouse kindling model versus neurotoxic effect (TD50) in rotarod test; compared with a control compound; cited from earlier work. A general note: Falling from the rotarod earlier than controls is read as motor impairment.
The test system of series [1] is levodopa-induced dyskinesia model cynomolgus monkeys. Briefly: Test Example 3: dyskinesia score in levodopa-induced dyskinesia model monkeys. It counts as in vivo. More on the design: key to Dyskinesia score: dyskinesia score 0 = normal home cage activity to 4 = severe stereotypy. The protocol:
A levodopa/carbidopa mixture containing 80 mg/kg of levodopa and 20 mg/kg of carbidopa and having a solution volume of 5 mL/kg was orally administered to Parkinson's disease model cynomolgus monkeys at the age of 6 to 7 prepared in the same way as in Test Example 1 for 8 consecutive days to provide levodopa-induced dyskinesia model cynomolgus monkeys. The induction of dyskinesia was determined based on the “dyskinesia score” in accordance with the following behavior evaluation items in the following test on activity in home cages, and animals having dyskinesia scores of 1 or more on day 7 of the repeated administration of the levodopa/carbidopa mixture were used.
Home cage activities corresponding to dyskinesia scores • 0: Normal home cage activity (exploring or inactivity, able to drink water, plays with mirror or caging, climbing of the walls). • 1: Some interference with normal activity, however able to climb walls. • 2: Occasional exploration of cage, some stereotypy • 3: Little normal movement, lack of climbing of walls, clear stereotypy • 4: Lack of normal home cage activity, lack of normal exploratory behavior and movement, severe stereotypy
Seven levodopa-induced dyskinesia model cynomolgus monkeys were randomized into 4 groups of approximately equal mean and variance in terms of body weight. On subsequent cycles 2, 3, and 4, the animals were crossed over to receive the other treatment. A wash out period of one week or more was set between cycles.
One of the seven animals was excluded from the evaluation of cycles 3 and 4 because it was unable to get up due to dyskinesia on day 8 in cycle 3 of the repeated administration of the levodopa/carbidopa mixture.
By the end of the study, each animal had received all the four treatments. Each substance was administered 1 hr. after the administration on day 8 of the repeated administration of the levodopa/carbidopa mixture. As a vehicle, an aqueous solution containing 0.43% (w/v) methyl cellulose 400, 10% (v/v) dimethyl sulfoxide (DMSO), and 4.5% (w/v) Cremophor (R) were used.
Before the administration, and 1 hr., 4 hrs., and 24 hrs. after the administration of the test substances, the dyskinesia scores of the animals were evaluated. The behavior evaluation was performed in a blinded manner. The dyskinesia scores of the groups were compared using Steel's test. The p-values of less than 0.05 were considered to be statistically significant.

Turning to `NS(=O)(=O)N[C@H]1c2c(F)cc(F)cc2CC1(F)F` [Compound (I), N-[(1S)-2,2,5,7-tetrafluoro-2,3-dihydro-1H-inden-1-yl]sulfamide], the analgesic effect result in the series with various animal models is reported as “exhibit an analgesic effect”. Besides, in the series on mouse kindling model, the “therapeutic index (TD50/ED50)” value is “higher”. The Dyskinesia score in series [1] (Compound (I) 25 mg/kg (G2), 1 hr. after administration) is 2.0 ± 0.0; in series [1] (Compound (I) 25 mg/kg (G2), 4 hrs. after administration), 1.6 ± 0.2; in series [1] (Compound (I) 25 mg/kg (G2), 24 hrs. after administration), 2.0 ± 0.0; in series [1] (Compound (I) 25 mg/kg (G2), Pre (before administration)) it was 1.7 ± 0.2; in series [1] (Compound (I) 50 mg/kg (G3), 1 hr. after administration), 1.8 ± 0.2; in series [1] (Compound (I) 50 mg/kg (G3), 4 hrs. after administration), 1.3 ± 0.2. Further, the Dyskinesia score in series [1] (Compound (I) 50 mg/kg (G3), 24 hrs. after administration) is given as 1.8 ± 0.2; in series [1] (Compound (I) 50 mg/kg (G3), Pre (before administration)) it was 1.7 ± 0.2. The “Mean value of the dyskinesia scores compared with other groups” value in series [1] (Compound (I) 50 mg/kg (G3), 4 hrs. after the administration, versus vehicle (G1) and istradefylline (G4)) was “lower as compared with the vehicle-treated group (G1) and the istradefylline-treated group (G4)”.
